Experimental data published in US20020199220A1, “Methods to propagate plants via somatic embryogenesis and to transfer genes into ornamental statice and other members of the family plumbaginaceae” (priority 2001, published 2002).
Where “and” joins values, the source holds several entries; their conditions need not be identical. Equal values may be shown once.

Key:
Assay type in all cases: cell-based
[1] = tested on: L. bellidifolium hypocotyl explants; assay: Induction of embryogenic calli from hypocotyl explants; details: medium containing 4% sucrose; 28 explants cultured
Method: (§1) Cotyledon and hypocotyl explants were dissected from 5-day old seedlings. The hypocotyls were cut 1 mm below the cotyledonary node and 1 mm above the hypocotyl-root junction to provide 2 mm-long explants. The cotyledons were separated from the cotyledon-petiole junction and halved into 2 to 3 mm long pieces. The explants were cultured, 10 per 100×15 mm Petri plate, on MS medium containing MS mineral salts, B5 vitamins (Gamborg et al. 1968), sucrose (2, 3 or 4% wt./v), 0.1 mg.l^−1 kinetin and 1, 2 or 5 mg.l^−1 2,4-D, pH 5.8. The plates were sealed with parafilm (American National Can, WI) and incubated at 25° C. under 16/8 h (day/night) light regime (PPFD 46 μmol.quanta.m^−2.s^−1, cool white fluorescent lamps). The explants were subcultured every two weeks on the same media.
(§2) Cotyledon explants from L. bellidifolium and L. sinuatum initiated callus within 7-10 days in culture on media containing 1 mg.l^−1 2,4-D and various levels of sucrose. Embryogenic callus was characterized by globular structures, smooth and shiny texture and creamy color. On media containing 1 mg.l^−1 2,4-D and 0.1 mg.l^−1 kinetin, increasing sucrose concentrations increased the induction of well developed embryogenic calli, 4% sucrose being the optimum (see the following Table 1). Some of the cotyledon explants respond with direct somatic embryogenesis without a callus phase. […]

[2] = tested on: L. sinuatum hypocotyl explants; assay: as above; details: medium containing 4% sucrose; 21 explants cultured
Method: as §1, §2

[3] = tested on: somatic embryos from embryogenic calli derived from L. bellidifolium and L. sinuatum cotyledon and hypocotyl explants; assay: Maturation and germination of somatic embryos from cultured embryogenic calli; set-up: key to Germination: − = No response; + slow (21-30 days); ++ medium (15-20 days); ++++- Fast (14 days) with 100% maturation and germination; details: for somatic embryo morphology: no growth regulators; for Germination / Maturation: MS medium
Method: For maturation, somatic embryos at late-globular, heart and torpedo stages were subcultured on MS media containing 3% or 4% (wt./v) sucrose with or without 0.1 mg.l^−1 kinetin. Calli differentiating globular embryos were transferred to maturation medium, MS supplemented with 3 or 4% sucrose and 0 or 0.1 mg.l^−1 kinetin. Late globular, heart, torpedo and cotyledonary stages differentiated in these media and with faster and higher response on media with 4% sucrose compared to that on 3% sucrose (see Table 2).
Supplementation of this medium with 0.1 mg/l kinetin induced embryo maturation and germination within 10 to 14 days of subculture compared to more than 21 days on media lacking kinetin.

[4] = tested on: L. bellidifolium cotyledon explants; assay: Induction of embryogenic calli from cotyledon explants; details: for Callus Description / % Response / Number of Explants responded/cultured: MS medium with 1 mg/l 2,4-D, 0.1 mg/l kinetin; for Callus Description / % Response: 30 days after culture; for % Response: mean of experiments; for Number of Explants responded/cultured: scored 30 days after culture, Exp.1 to 3
Method: (§3) Seeds of perennial statice Limoniurn bellidifolium (Gouan) Durmort.(Statice caspia Willd.) and annual statice Linonium sinuatum (L.) Mill. Cv. Soiree, and other Limonium species were purchased from Park Seed Co. (Greenwood, S.C., U.S.A.). Seeds were surface-sterilized by rinsing in 70% (v/v) ethanol for 30 seconds and in 10% (v/v) commercial bleach for 10 minutes. Following this treatment, they were washed five times in sterile distilled water and germinated under light on half-strength Murashige and Skoog basal medium (MS, Murashige and Skoog, 1962) containing 1.5% (wt./v) sucrose and 0.8% (wt./v) agar (Agar-agar, Sigma, St. Louis, Mo., U.S.A.). The pH was adjusted to 5.8 prior to autoclaving for 5 days to provide the explants.
as §1
(§4) Cotyledon explants from L. bellidifolium and L. sinuatum initiated callus within 7-10 days in culture on media containing 1 mg.l^−1 2,4-D and various levels of sucrose. Embryogenic callus was characterized by globular structures, smooth and shiny texture and creamy color. On media containing 1 mg.l^−1 2,4-D and 0.1 mg.l^−1 kinetin, increasing sucrose concentrations increased the induction of well developed embryogenic calli, 4% sucrose being the optimum (see the following Table 1). Some of the cotyledon explants respond with direct somatic embryogenesis without a callus phase. The embryogenic calli produced repetitive globular embryos on the same induction media for both species. Medium containing 4% sucrose was also optimum to induce embryogenic calli from hypocotyl explants (79% response for 28 explants cultured for L. bellidifolium and 86% response for 21 explants cultured for L. sinuatum). On an average, 2-3 somatic embryos developed per explant weekly. At 2% sucrose, friable non-embryogenic callus grew along with less defined embryogenic calli on the same explant.

[5] = tested on: L. sinuatum cotyledon explants; assay: as above; details: for Callus Description / % Response / Number of Explants responded/cultured: MS medium with 1 mg/l 2,4-D, 0.1 mg/l kinetin; for Callus Description / % Response: 30 days after culture; for % Response: mean of experiments; for Number of Explants responded/cultured: scored 30 days after culture, Exp.1 to 3
Method: as §3, §1, §4

[6] = media containing 1 mg/l 2,4-D and various levels of sucrose

OC[C@H]1O[C@@](CO)(O[C@H]2O[C@H](CO)[C@@H](O)[C@H](O)[C@H]2O)[C@@H](O)[C@@H]1O [sucrose] was tested, and the “response (induction of embryogenic calli)” value [1] was 79%, the “response (induction of embryogenic calli)” value [2] was 86% and the somatic embryo morphology ([3]; 3% sucrose) was “abnormally long roots with poor shoot development”. For the same molecule, the Germination ([3]; 3% sucrose, kinetin 0.0 mg/l) was “−”, the Maturation ([3]; 3% sucrose, kinetin 0.0 mg/l) was “+ (+ slow (21-30 days))” and the Germination ([3]; 3% sucrose, kinetin 0.1 mg/l) was “++ (++ medium (15-20 days))”. The Maturation ([3]; 3% sucrose, kinetin 0.1 mg/l) was “++ (++ medium (15-20 days))”, the Germination ([3]; 4% sucrose, kinetin 0.0 mg/l) was “+ (+ slow (21-30 days))” and the Maturation ([3]; 4% sucrose, kinetin 0.0 mg/l) was “++ (++ medium (15-20 days))”. The Germination ([3]; 4% sucrose, kinetin 0.1 mg/l) was “++++ (++++- Fast (14 days) with 100% maturation and germination)”, the Maturation ([3]; 4% sucrose, kinetin 0.1 mg/l) was “++++ (++++- Fast (14 days) with 100% maturation and germination)” and the somatic embryo morphology ([3]; sucrose increased to 4%) was “inhibited this abnormal rooting”. For the same molecule, the “Callus Description” value ([4]; 2% sucrose) was “W,E,F”, the “% Response” value ([4]; 2% sucrose) was 75% and the “Number of Explants responded/cultured” value ([4]; 2% sucrose) was 15/24 and 23/28 and 53/67. The “Callus Description” value ([4]; 3% sucrose) was “W/G,E(g,t)”, the “% Response” value ([4]; 3% sucrose) was 79% and the “Number of Explants responded/cultured” value ([4]; 3% sucrose) was 46/58 and 53/62 and 48/68. For the same molecule, the “Callus Description” value ([4]; 4% sucrose) was “W/G,E(g,h,t)”, the “% Response” value ([4]; 4% sucrose) was 89% and the “Number of Explants responded/cultured” value ([4]; 4% sucrose) was 29/32 and 1/26 and 39/41. The “Callus Description” value ([5]; 2% sucrose) was “W,E,F”, the “% Response” value ([5]; 2% sucrose) was 72% and the “Number of Explants responded/cultured” value ([5]; 2% sucrose) was 12/19 and 38/44 and 13/20. For the same molecule, the “Callus Description” value ([5]; 3% sucrose) was “W/G,B(g,t)”, the “% Response” value ([5]; 3% sucrose) was 79% and the “Number of Explants responded/cultured” value ([5]; 3% sucrose) was 50/61 and 49/74 and 61/69. The “Callus Description” value ([5]; 4% sucrose) was “W/G,B(g,h,t)”, the “% Response” value ([5]; 4% sucrose) was 88% and the “Number of Explants responded/cultured” value ([5]; 4% sucrose) was 42/48 and 32/39 and 37/40.

For O=C(O)COc1ccc(Cl)cc1Cl [2,4-D, reference compound], the “time to callus initiation in culture” value [4, 6] was 7 to 10 days and the “time to callus initiation in culture” value [5, 6] was 7 to 10 days.
